In ChEMBL document CHEMBL4622919, “Hypersonins A-D, Polycyclic Polyprenylated Acylphloroglucinols with a 1,2-seco-Homoadamantane Architecture from Hypericum wilsonii” (J Nat Prod, 2020):

Tested on: Splenocyte
Assay: Immunosuppressive activity in BALB/c mouse splenocytes assessed as reduction in anti-mouse CD3/CD28-induced cell proliferation after 72 hrs by flow cytometric analysis
Assay type: functional, cell-based

Work on COC(=O)[C@]12C[C@H](C(C)(C)O)C(C)(C)[C@H]1C[C@H]1C[C@@](CC=C(C)C)(C2=O)C(O)=C(C(=O)C(C)C)C1(C)C yielded an IC50 of 8.3 µM.
